Experimental data taken from US20260242418A1, “CYCLIC PEPTIDES WITH ANTIBACTERIAL ACTIVITY AGAINST MULTIDRUG RESISTANT (MDR) PATHOGENS” (priority 2022, published 2026).

Tested on: A. baumannii 8 clinical strain
Test: Time-kill curves
Type: cell-based, Acinetobacter baumannii
Experimental: Time-kill curves (TKC) determine the in vitro antimicrobial activity of a compound, monitoring the bacterial growth over a certain period of time.
This assay was performed for two Acinetobacter baumannii strains (a clinical strain and ATCC 19606 strain) and one Pseudomonas aeruginosa ATCC 27853 strain, monitoring its growth during 24 hours at different PLP-3 (SEQ ID NO: 4) concentrations: MIC, 2×MIC, 4×MIC, 8×MIC. Moreover, in each TKC assay a negative and a positive growth control was stablished.
In different 13MI tubes, a certain concentration of PLP-3 peptide, Mueller-Hinton Broth (MHB, 1214, Condalab) and a fixed inoculum concentration were added. The final inoculum concentration in each tube was […]. Tubes were incubated at 37° C. at 180 rpm during 24 hours. Aliquots of the liquid culture were taken at different times: 0 h, 10 minutes, 30 minutes, 1 h, 2 h, 4 h, 8 h and 24 h. For each taken aliquot, serial dilutions with Phosphate Saline Buffer 1× (PBS 1×) were made and streaked in Luria-Bertani Agar (LB, 1083, Condalab). LB Agar plates were incubated at 37° C. during 18-22 hours. Grown colonies in LB Agar were counted in order to quantify the inoculum in each time period.
Three biological replicates were performed for each strain, and the mean and standard deviation was determined each time.

Q: With CC(C)C[C@@H]1NC(=O)[C@H](CCCNC(=N)N)NC(=O)[C@H](CCCNC(=N)N)NC(=O)[C@H](CCCNC(=N)N)NC(=O)[C@H]2CCCN2C(=O)[C@H](CCCNC(=N)N)NC(=O)[C@H](CCCNC(=N)N)NC(=O)[C@H](C(C)C)NC(=O)[C@@H]2CSSC[C@H](NC1=O)C(=O)N[C@@H](Cc1ccccc1)C(=O)N[C@@H](C(C)C)C(=O)N[C@@H](CCCNC(=N)N)C(=O)N1CCC[C@@H]1C(=O)N[C@@H](CCCCN)C(=O)N[C@@H](Cc1ccccc1)C(=O)N[C@@H](C(C)C)C(=O)N[C@@H](C(C)C)C(=O)N2 [PLP-3, cyclo[RRRLCFVRPKFVVCVRRP]] as the compound, how does the “log(CFU/mL) Mean” value (2xMIC (4 μg/mL), 0.00 h) read?
A: 5.60 log(CFU/mL)

Q: And the “log(CFU/mL) Mean” value (2xMIC (4 μg/mL), 0.17 h)?
A: 5.56 log(CFU/mL)

Q: What about the “log(CFU/mL) Mean” value (2xMIC (4 μg/mL), 0.50 h) of the same compound?
A: 4.92 log(CFU/mL)

Q: What about the “log(CFU/mL) Mean” value (2xMIC (4 μg/mL), 1.00 h) of the same compound?
A: 4.20 log(CFU/mL)

Q: What about the “log(CFU/mL) Mean” value (2xMIC (4 μg/mL), 2.00 h) of the same compound?
A: 2.74 log(CFU/mL)

Q: What about the “log(CFU/mL) Mean” value (2xMIC (4 μg/mL), 4.00 h) of the same compound?
A: 1.89 log(CFU/mL)

Q: And the “log(CFU/mL) Mean” value (2xMIC (4 μg/mL), 8.00 h)?
A: 1.05 log(CFU/mL)

Q: What about the “log(CFU/mL) Mean” value (2xMIC (4 μg/mL), 24.00 h) of the same compound?
A: 1.49 log(CFU/mL)

Q: And the “log(CFU/mL) Mean” value (4xMIC (8 μg/mL), 0.00 h)?
A: 5.60 log(CFU/mL)

Q: What about the “log(CFU/mL) Mean” value (4xMIC (8 μg/mL), 0.17 h) of the same compound?
A: 5.30 log(CFU/mL)

Q: What about the “log(CFU/mL) Mean” value (4xMIC (8 μg/mL), 0.50 h) of the same compound?
A: 4.11 log(CFU/mL)

Q: What about the “log(CFU/mL) Mean” value (4xMIC (8 μg/mL), 1.00 h) of the same compound?
A: 2.74 log(CFU/mL)

Q: What about the “log(CFU/mL) Mean” value (4xMIC (8 μg/mL), 2.00 h) of the same compound?
A: 0.00 log(CFU/mL)

Q: What about the “log(CFU/mL) Mean” value (4xMIC (8 μg/mL), 4.00 h) of the same compound?
A: 0.00 log(CFU/mL)

Q: And the “log(CFU/mL) Mean” value (4xMIC (8 μg/mL), 8.00 h)?
A: 0.00 log(CFU/mL)

Q: What about the “log(CFU/mL) Mean” value (4xMIC (8 μg/mL), 24.00 h) of the same compound?
A: 0.00 log(CFU/mL)

Q: And the “log(CFU/mL) Mean” value (8xMIC (16 μg/mL), 0.00 h)?
A: 5.60 log(CFU/mL)

Q: What about the “log(CFU/mL) Mean” value (8xMIC (16 μg/mL), 0.17 h) of the same compound?
A: 4.45 log(CFU/mL)

Q: And the “log(CFU/mL) Mean” value (8xMIC (16 μg/mL), 0.50 h)?
A: 0.00 log(CFU/mL)

Q: And the “log(CFU/mL) Mean” value (8xMIC (16 μg/mL), 1.00 h)?
A: 0.00 log(CFU/mL)

Q: And the “log(CFU/mL) Mean” value (8xMIC (16 μg/mL), 2.00 h)?
A: 0.00 log(CFU/mL)

Q: And the “log(CFU/mL) Mean” value (8xMIC (16 μg/mL), 4.00 h)?
A: 0.00 log(CFU/mL)

Q: What about the “log(CFU/mL) Mean” value (8xMIC (16 μg/mL), 8.00 h) of the same compound?
A: 0.00 log(CFU/mL)

Q: And the “log(CFU/mL) Mean” value (8xMIC (16 μg/mL), 24.00 h)?
A: 0.00 log(CFU/mL)

Q: And the “log(CFU/mL) Mean” value (MIC (2 μg/mL), 0.00 h)?
A: 5.60 log(CFU/mL)

Q: What about the “log(CFU/mL) Mean” value (MIC (2 μg/mL), 0.17 h) of the same compound?
A: 5.63 log(CFU/mL)

Q: What about the “log(CFU/mL) Mean” value (MIC (2 μg/mL), 0.50 h) of the same compound?
A: 5.18 log(CFU/mL)

Q: And the “log(CFU/mL) Mean” value (MIC (2 μg/mL), 1.00 h)?
A: 4.55 log(CFU/mL)

Q: And the “log(CFU/mL) Mean” value (MIC (2 μg/mL), 2.00 h)?
A: 3.56 log(CFU/mL)

Q: And the “log(CFU/mL) Mean” value (MIC (2 μg/mL), 4.00 h)?
A: 2.54 log(CFU/mL)

Q: And the “log(CFU/mL) Mean” value (MIC (2 μg/mL), 8.00 h)?
A: 2.90 log(CFU/mL)

Q: And the “log(CFU/mL) Mean” value (MIC (2 μg/mL), 24.00 h)?
A: 4.67 log(CFU/mL)

Q: And the “bactericidal or bacteriostatic activity” value (time-kill curves over 24 hours, MIC to 8xMIC)?
A: bactericidal effect
